{"source": "ChEMBL document CHEMBL6083259", "about": "“Discovery of quinazoline-benzothiazole derivatives as novel potent protease-activated receptor 4 antagonists with improved pharmacokinetics and low bleeding liability” (Eur J Med Chem, 2024)"}
{"target": "T1, Proteinase-activated receptor 4 (Homo sapiens) (UniProt Q96RI0)", "T1 sequence (whole entry)": "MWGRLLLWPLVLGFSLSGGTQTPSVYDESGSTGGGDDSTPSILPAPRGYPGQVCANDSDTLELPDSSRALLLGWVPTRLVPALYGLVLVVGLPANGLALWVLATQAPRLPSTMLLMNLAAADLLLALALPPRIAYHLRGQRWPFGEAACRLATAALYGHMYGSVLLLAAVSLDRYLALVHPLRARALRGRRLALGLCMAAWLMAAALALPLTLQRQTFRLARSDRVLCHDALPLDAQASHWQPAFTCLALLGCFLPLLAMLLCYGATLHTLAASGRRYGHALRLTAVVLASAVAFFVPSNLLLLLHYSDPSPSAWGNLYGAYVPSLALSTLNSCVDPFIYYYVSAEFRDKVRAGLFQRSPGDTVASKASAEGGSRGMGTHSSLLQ", "experiment": "(§1) Antagonist activity at PAR4 in human platelet rich plasma assessed as inhibition of gamma-PAR4 agonist peptide (AYPGKF-NH2)-induced platelet aggregation at 200 nM preincubated for 5 mins followed by peptide addition and measured after 5 mins by aggregometer relative to control", "assay_type": "cell-based", "settings": "filed as antagonist, time 10.0 min", "units": {"inhibition": "%"}}
{"smiles": "COc1cc(Cl)c2nc(-c3cc(C)cc4cnc(OC(F)F)nc34)sc2c1", "inhibition": 74.5}
{"smiles": "CNc1ncc2cc(C)cc(-c3nc4c(Cl)cc(OC)cc4s3)c2n1", "inhibition": 58.1}
{"smiles": "COc1ccc2nc(-c3cc(C)cc4nc(SC)ncc34)sc2c1", "inhibition": 62.3}
{"smiles": "COc1cc(Cl)c2nc(-c3cc(C)cc4cnc(N5CCOCC5)nc34)sc2c1", "inhibition": 52.3}
{"smiles": "COc1ncc2c(-c3nc4cc(F)c(OCCO)cc4s3)cc(C)cc2n1", "inhibition": 84.1}
{"smiles": "COCc1ncc2c(-c3nc4cc(F)c(OCCOC(=O)Nc5ccc(C(=O)N6CCOCC6)cc5)cc4s3)cc(C)cc2n1", "inhibition": 67.1}
{"smiles": "COCOc1ncc2c(-c3nc4c(Cl)cc(OC)cc4s3)cc(C)cc2n1", "inhibition": 83.8}
{"smiles": "COc1cc(Cl)c2nc(-c3cc(C)cc4cncnc34)sc2c1", "inhibition": 82.3}
{"smiles": "COc1ncc2cc(C)cc(-c3nc4c(C)cc5c(c4s3)OCCO5)c2n1", "inhibition": 65.3}
{"smiles": "COc1ncc2c(-c3nc4cc(F)c5c(c4s3)C[C@H](COC(=O)Nc3ccc(C)cc3)O5)cc(C)cc2n1", "inhibition": 79.6}
{"smiles": "COc1ccc(NC(=O)OC[C@H]2Cc3c(c(F)cc4nc(-c5cc(C)cc6nc(OC)ncc56)sc34)O2)cc1", "inhibition": 70.5}
{"smiles": "COc1ncc2c(-c3nc4cc(F)c(OC)cc4s3)cc(C)cc2n1", "inhibition": 88.3}
{"smiles": "COc1cc(Cl)c2nc(-c3cc(C)cc4cnc(OC)nc34)sc2c1", "inhibition": 86.4}
{"smiles": "COCOc1ncc2c(-c3nc4ccc(OC)cc4s3)cc(C)cc2n1", "inhibition": 73.9}
{"smiles": "COc1cc(OC)c2nc(-c3cc(C)cc4nc(OC)ncc34)sc2c1", "inhibition": 47.8}
{"smiles": "COc1ncc2c(-c3nc4cc(F)c5c(c4s3)C[C@@H](COC(=O)Nc3cc(F)cc(C#N)c3)O5)cc(C)cc2n1", "inhibition": 65.8}
{"smiles": "COc1ccc2nc(-c3cc(C)cc4nc(OC(C)C)ncc34)sc2c1", "inhibition": 42.9}
{"smiles": "COc1ncc2c(-c3nc4cc(F)c5c(c4s3)C[C@H](COC(=O)Nc3ccc(C)cc3F)O5)cc(C)cc2n1", "inhibition": 82.7}
{"smiles": "COCOc1ncc2c(-c3nc4cc(F)c(OC)cc4s3)cc(C)cc2n1", "inhibition": 86.5}
{"smiles": "COc1ncc2c(-c3nc4cc(F)c5c(c4s3)C[C@@H](COC(=O)N3CCOCC3)O5)cc(C)cc2n1", "inhibition": 47.6}
{"smiles": "COc1cc(Cl)c2nc(-c3cc(C)cc4cnc(N(C)C)nc34)sc2c1", "inhibition": 47.6}
{"smiles": "CCOc1ncc2c(-c3nc4c(Cl)cc(OC)cc4s3)cc(C)cc2n1", "inhibition": 43.4}
{"smiles": "COc1cc(C)c2nc(-c3cc(C)cc4nc(OC)ncc34)sc2c1", "inhibition": 70.2}
{"smiles": "COc1ncc2cc(C)cc(-c3nc4cc(F)c(OC)cc4s3)c2n1", "inhibition": 90.2}
{"smiles": "COc1ncc2c(-c3nc4cc(F)c5c(c4s3)C[C@H](COC(=O)N3CCOCC3)O5)cc(C)cc2n1", "inhibition": 64.7}
{"smiles": "COc1ncc2c(-c3nc4cc(F)c5c(c4s3)C[C@@H](COC(=O)Nc3ccc(C(=O)N4CCOCC4)cc3)O5)cc(C)cc2n1", "inhibition": 61.2}
{"smiles": "COc1cc(Cl)c2nc(-c3cc(C)cc4nc(OC)ncc34)sc2c1", "inhibition": 85.2}
{"smiles": "CCOc1ncc2c(-c3nc4cc(F)c(OC)cc4s3)cc(C)cc2n1", "inhibition": 40.4}
{"smiles": "COc1ncc2c(-c3nc4cc(F)c5c(c4s3)C[C@H](COC(=O)Nc3ccc(OC)c(F)c3)O5)cc(C)cc2n1", "inhibition": 59.6}
{"smiles": "COc1cc(Cl)c2nc(-c3cc(C)cc4cnc(SC)nc34)sc2c1", "inhibition": 69.2}
{"smiles": "CNc1ncc2c(-c3nc4c(Cl)cc(OC)cc4s3)cc(C)cc2n1", "inhibition": 58.7}
{"smiles": "COc1cc(Cl)c2nc(-c3cc(C)cc4nc(SC)ncc34)sc2c1", "inhibition": 68.2}
{"smiles": "COCc1ncc2c(-c3nc4cc(F)c(OCCOC(=O)Nc5cccc(C#N)c5)cc4s3)cc(C)cc2n1", "inhibition": 77.1}
{"smiles": "COc1ccc2nc(-c3cc(C)cc4cnc(OC)nc34)sc2c1", "inhibition": 79.8}
{"smiles": "COc1cc(F)c2nc(-c3cc(C)cc4cnc(OC)nc34)sc2c1", "inhibition": 89.6}
{"smiles": "COc1ccc2nc(-c3cc(C)cc4nc(OC)ncc34)sc2c1", "inhibition": 77.4}
{"smiles": "COCOc1ncc2c(-c3nc4c(F)cc(OC)cc4s3)cc(C)cc2n1", "inhibition": 77.4}
{"smiles": "COc1cc(Cl)c2nc(-c3cc(C)cc4cnc(C)nc34)sc2c1", "inhibition": 85.7}
{"smiles": "COc1cc(F)c2nc(-c3cc(C)cc4nc(OC)ncc34)sc2c1", "inhibition": 78.8}
{"smiles": "COc1ncc2c(-c3nc4ccccc4s3)cc(C)cc2n1", "inhibition": 49.6}
{"smiles": "COc1ccc(NC(=O)OC[C@H]2Cc3c(c(F)cc4nc(-c5cc(C)cc6nc(OC)ncc56)sc34)O2)c(C)c1", "inhibition": 55.3}
{"smiles": "COc1cc2sc(-c3cc(C)cc4nc(SC)ncc34)nc2cc1F", "inhibition": 74.8}
{"target": "T1, Proteinase-activated receptor 4 (Homo sapiens)", "experiment": "as §1", "assay_type": "cell-based", "settings": "time 10.0 min", "units": {"inhibition": "%"}}
{"smiles": "COc1cc(Cl)c2nc(-c3cc(C)cc4cnc(N5CCCCC5)nc34)sc2c1", "inhibition": 39.5}
{"smiles": "COCc1ncc2c(-c3nc4cc(F)c(OCCOC(=O)OC)cc4s3)cc(C)cc2n1", "inhibition": 35.3}
{"smiles": "COCc1ncc2c(-c3nc4cc(F)c(OCCOC(=O)N5CCOCC5)cc4s3)cc(C)cc2n1", "inhibition": 34.5}
{"smiles": "CCOc1ncc2cc(C)cc(-c3nc4c(Cl)cc(OC)cc4s3)c2n1", "inhibition": 36.7}
{"smiles": "COc1ncc2c(-c3nc4cc(F)c5c(c4s3)C[C@H](COC(=O)Nc3ccc(C(=O)N4CCOCC4)cc3)O5)cc(C)cc2n1", "inhibition": 38.1}
{"smiles": "COc1ccc(NC(=O)OC[C@H]2Cc3c(c(F)cc4nc(-c5cc(C)cc6nc(OC)ncc56)sc34)O2)cn1", "inhibition": 32.9}
{"smiles": "COc1cc(Cl)c2nc(-c3cc(C)cc4nc(OC(C)C)ncc34)sc2c1", "inhibition": 37.7}
{"smiles": "COc1ncc2cc(C)cc(-c3nc4c(Cl)cc(Cl)cc4s3)c2n1", "inhibition": 34.7}
{"smiles": "COc1ncc2cc(C)cc(-c3nc4ccccc4s3)c2n1", "inhibition": 29.7}
{"smiles": "COc1cc(Cl)c2nc(-c3cc(C)cc4cnc(OC(C)C)nc34)sc2c1", "inhibition": 26.3}
{"smiles": "COc1ncc2c(-c3nc4cc(F)c5c(c4s3)C[C@H](COC(=O)Nc3cnc(C)nc3)O5)cc(C)cc2n1", "inhibition": 27.5}
{"smiles": "CCOc1ncc2c(-c3nc4c(F)cc(OC)cc4s3)cc(C)cc2n1", "inhibition": 39.1}
{"smiles": "COC(=O)OC[C@H]1Cc2c(c(F)cc3nc(-c4cc(C)cc5nc(OC)ncc45)sc23)O1", "inhibition": 34.9}
{"tested_on": "not listed separately", "experiment": "Toxicity in male C57BL/6 mouse assessed as prolongation of bleeding time at 10 mg/kg, po measured after 1.5 hrs by tail bleeding assay", "assay_type": "organism-based", "settings": "in vivo"}
{"smiles": "COC(=O)[C@H](c1ccccc1Cl)N1CCc2sccc2C1", "note": "[CLOPIDOGREL]", "Activity": "Toxic"}
